Experimental data as given in ChEMBL document CHEMBL1129595, “Potent 6-desfluoro-8-methylquinolones as new lead compounds in antibacterial chemotherapy” (J Med Chem, 1996).
≈ marks a conversion by molar mass, not a printed value.

Assays:
Format in all cases: functional
Enterococcus faecalis [1] = experiment: In vitro antibacterial activity against Enterococcus faecalis LEP Br
Enterococcus faecalis [2] = experiment: In vitro antibacterial activity against Enterococcus faecalis UCMC 39690
Enterobacter cloacae = experiment: In vitro antibacterial activity against Enterobacter cloacae OMNFI 174
Escherichia coli [3] = experiment: In vitro antibacterial activity against Escherichia coli 120
Escherichia coli [4] = experiment: In vitro antibacterial activity against Escherichia coli ATCC 25922
Haemophilus influenzae = experiment: In vitro antibacterial activity against Haemophilus influenzae
Klebsiella pneumoniae = experiment: In vitro antibacterial activity against Klebsiella pneumoniae ATCC 10031
Proteus mirabilis = experiment: In vitro antibacterial activity against Proteus mirabilis OBT 505
Pseudomonas aeruginosa [5] = experiment: In vitro antibacterial activity against Pseudomonas aeruginosa OBT 307
Proteus vulgaris = experiment: In vitro antibacterial activity against Proteus vulgaris CNUR 6
Staphylococcus aureus [6] = experiment: In vitro antibacterial activity against Staphylococcus aureus ATCC 29213
Staphylococcus aureus [7] = experiment: In vitro antibacterial activity against Staphylococcus aureus M-R POMM 6214
Staphylococcus aureus [8] = experiment: In vitro antibacterial activity against Staphylococcus aureus MPR 5
Staphylococcus aureus [9] = experiment: In vitro antibacterial activity against Staphylococcus aureus CPX-R OBT 687
Streptococcus pneumoniae = experiment: In vitro antibacterial activity against Streptococcus pneumoniae I 0.43
Streptococcus pyogenes = experiment: In vitro antibacterial activity against Streptococcus pyogenes OMNFI BI
Escherichia coli [10] = experiment: In vitro antibacterial activity against Escherichia coliCPX-R OBT 431
Pseudomonas aeruginosa [11] = experiment: In vitro antibacterial activity against Pseudomonas aeruginosa […] 9027

SMILES | MIC (Enterococcus faecalis [1]) | MIC (Enterococcus faecalis [2]) | MIC (Enterobacter cloacae) | MIC (Escherichia coli [3]) | MIC (Escherichia coli [4]) | MIC (Haemophilus influenzae) | MIC (Klebsiella pneumoniae) | MIC (Proteus mirabilis) | MIC (Pseudomonas aeruginosa [5]) | MIC (Proteus vulgaris) | MIC (Staphylococcus aureus [6]) | MIC (Staphylococcus aureus [7]) | MIC (Staphylococcus aureus [8]) | MIC (Staphylococcus aureus [9]) | MIC (Streptococcus pneumoniae) | MIC (Streptococcus pyogenes) | MIC (Escherichia coli [10]) | MIC (Pseudomonas aeruginosa [11])
Cc1c(N2CCSCC2)ccc2c(=O)c(C(=O)O)cn(C3CC3)c12 | 1 µg/mL (≈ 2.9 µM) | 0.5 µg/mL (≈ 1.45 µM) | 1 µg/mL (≈ 2.9 µM) | 0.25 µg/mL (≈ 0.726 µM) | 0.125 µg/mL (≈ 0.363 µM) | < 0.016 µg/mL | < 0.016 µg/mL | 4 µg/mL (≈ 11.6 µM) | 16 µg/mL (≈ 46.5 µM) | 16 µg/mL (≈ 46.5 µM) | > 0.016 µg/mL | > 0.016 µg/mL | > 0.016 µg/mL | 2 µg/mL (≈ 5.81 µM) | 1 µg/mL (≈ 2.9 µM) | 0.5 µg/mL (≈ 1.45 µM) | > 16 µg/mL | 4 µg/mL (≈ 11.6 µM)
Cc1c(N2CC(C)OC(C)C2)ccc2c(=O)c(C(=O)O)cn(C3CC3)c12 (configuration not stated) | 1 µg/mL (≈ 2.81 µM) | 0.25 µg/mL (≈ 0.701 µM) | 2 µg/mL (≈ 5.61 µM) | 0.5 µg/mL (≈ 1.4 µM) | 1 µg/mL (≈ 2.81 µM) | 1 µg/mL (≈ 2.81 µM) | 0.125 µg/mL (≈ 0.351 µM) | 16 µg/mL (≈ 44.9 µM) | 16 µg/mL (≈ 44.9 µM) | > 16 µg/mL | 0.125 µg/mL (≈ 0.351 µM) | 0.03 µg/mL (≈ 0.0842 µM) | < 0.016 µg/mL | 1 µg/mL (≈ 2.81 µM) | 0.5 µg/mL (≈ 1.4 µM) | 0.5 µg/mL (≈ 1.4 µM) | > 16 µg/mL | 16 µg/mL (≈ 44.9 µM)
Cc1c(N2CCC(O)CC2)ccc2c(=O)c(C(=O)O)cn(C3CC3)c12 | 0.5 µg/mL (≈ 1.46 µM) | 0.125 µg/mL (≈ 0.365 µM) | 0.25 µg/mL (≈ 0.73 µM) | 0.06 µg/mL (≈ 0.175 µM) | 0.06 µg/mL (≈ 0.175 µM) | 0.25 µg/mL (≈ 0.73 µM) | < 0.016 µg/mL | 2 µg/mL (≈ 5.84 µM) | 16 µg/mL (≈ 46.7 µM) | 8 µg/mL (≈ 23.4 µM) | < 0.016 µg/mL | < 0.016 µg/mL | < 0.016 µg/mL | 0.5 µg/mL (≈ 1.46 µM) | 0.25 µg/mL (≈ 0.73 µM) | 2 µg/mL (≈ 5.84 µM) | > 16 µg/mL | 2 µg/mL (≈ 5.84 µM)
Cc1c(N2CCC(C)CC2)ccc2c(=O)c(C(=O)O)cn(C3CC3)c12 | 0.5 µg/mL (≈ 1.47 µM) | 0.03 µg/mL (≈ 0.0881 µM) | 0.25 µg/mL (≈ 0.734 µM) | 0.06 µg/mL (≈ 0.176 µM) | 0.03 µg/mL (≈ 0.0881 µM) | < 0.016 µg/mL | < 0.016 µg/mL | 2 µg/mL (≈ 5.88 µM) | 8 µg/mL (≈ 23.5 µM) | 4 µg/mL (≈ 11.8 µM) | < 0.016 µg/mL | < 0.016 µg/mL | < 0.016 µg/mL | 1 µg/mL (≈ 2.94 µM) | 0.25 µg/mL (≈ 0.734 µM) | 0.125 µg/mL (≈ 0.367 µM) | > 16 µg/mL | 2 µg/mL (≈ 5.88 µM)
CC(=O)O.Cc1c(N2CC[C@@H](N)C2)ccc2c(=O)c(C(=O)O)cn(C3CC3)c12 | 0.5 µg/mL | 0.25 µg/mL | 0.25 µg/mL | 0.016 µg/mL | 0.03 µg/mL | 0.6 µg/mL | 0.016 µg/mL | 0.06 µg/mL | 0.5 µg/mL | 2 µg/mL | 0.125 µg/mL | 0.25 µg/mL | 0.125 µg/mL | 4 µg/mL | 0.25 µg/mL | 0.25 µg/mL | 16 µg/mL | 0.125 µg/mL
Cc1c(N2CCC(N)C2)ccc2c(=O)c(C(=O)O)cn(C3CC3)c12 (configuration not stated) | 1 µg/mL (≈ 3.05 µM) | 0.5 µg/mL (≈ 1.53 µM) | < 0.016 µg/mL | < 0.016 µg/mL | < 0.016 µg/mL | < 0.016 µg/mL | < 0.016 µg/mL | 0.5 µg/mL (≈ 1.53 µM) | 1 µg/mL (≈ 3.05 µM) | 1 µg/mL (≈ 3.05 µM) | 0.125 µg/mL (≈ 0.382 µM) | 0.25 µg/mL (≈ 0.764 µM) | 0.125 µg/mL (≈ 0.382 µM) | 4 µg/mL (≈ 12.2 µM) | 0.06 µg/mL (≈ 0.183 µM) | 1 µg/mL (≈ 3.05 µM) | 16 µg/mL (≈ 48.9 µM) | 0.125 µg/mL (≈ 0.382 µM)
Cc1c(N2CC(C)CC(C)C2)ccc2c(=O)c(C(=O)O)cn(C3CC3)c12 (configuration not stated) | 1 µg/mL (≈ 2.82 µM) | 1 µg/mL (≈ 2.82 µM) | 4 µg/mL (≈ 11.3 µM) | 1 µg/mL (≈ 2.82 µM) | 1 µg/mL (≈ 2.82 µM) | 0.25 µg/mL (≈ 0.705 µM) | 0.5 µg/mL (≈ 1.41 µM) | 16 µg/mL (≈ 45.1 µM) | > 16 µg/mL | > 16 µg/mL | < 0.016 µg/mL | < 0.016 µg/mL | < 0.016 µg/mL | 4 µg/mL (≈ 11.3 µM) | 0.5 µg/mL (≈ 1.41 µM) | 2 µg/mL (≈ 5.64 µM) | > 16 µg/mL | 8 µg/mL (≈ 22.6 µM)
Cc1c(N2CCCC(CO)C2)ccc2c(=O)c(C(=O)O)cn(C3CC3)c12 (configuration not stated) | 0.5 µg/mL (≈ 1.4 µM) | 0.25 µg/mL (≈ 0.701 µM) | 0.5 µg/mL (≈ 1.4 µM) | 0.25 µg/mL (≈ 0.701 µM) | 0.125 µg/mL (≈ 0.351 µM) | < 0.016 µg/mL | 0.06 µg/mL (≈ 0.168 µM) | 4 µg/mL (≈ 11.2 µM) | 16 µg/mL (≈ 44.9 µM) | 8 µg/mL (≈ 22.4 µM) | < 0.016 µg/mL | < 0.016 µg/mL | < 0.016 µg/mL | 1 µg/mL (≈ 2.81 µM) | 0.5 µg/mL (≈ 1.4 µM) | 0.5 µg/mL (≈ 1.4 µM) | 16 µg/mL (≈ 44.9 µM) | 4 µg/mL (≈ 11.2 µM)
Cc1c(N2CCNCC2)ccc2c(=O)c(C(=O)O)cn(C3CC3)c12.Cl | 2 µg/mL | 2 µg/mL | 0.26 µg/mL | 0.03 µg/mL | 0.03 µg/mL | 0.03 µg/mL | < 0.016 µg/mL | 0.25 µg/mL | 2 µg/mL | 2 µg/mL | 0.5 µg/mL | 0.5 µg/mL | 0.25 µg/mL | 16 µg/mL | 2 µg/mL | 2 µg/mL | > 16 µg/mL | 0.125 µg/mL
